Test results as given in US20090298169A1, “Pancreatic and Liver Endoderm Cells and Tissue by Differentiation of Definitive Endoderm Cells Obtained from Human Embryonic Stems” (The University of Georgia Research Foundation, priority 2006, published 2009).

Assays:
[1] = system: BG01 cells; test: Flow cytometry of cell surface markers (CD9) on inhibitor treated BG01 cells; format: cell-based, human
Description: (§1) The inhibitor studies are performed as described in Example 2.
For flow cytometry, the BG01 cells are washed with 1×PBS and fixed in 2% paraformaldehyde/1×PBS for 10 minutes at room temperature. The cells are then washed in 1×PBS and approximately 2×10^5 cells are incubated with primary antibody diluted in 1% BSA/1×PBS. The primary antibodies used are anti-CD9 and anti-thrombomodulin (Cymbus Biotechnology), FITC conjugated mouse monoclonal antibodies at a 1:10 dilution. Cells are incubated at 4° C. for 30 minutes and then washed twice in 1×PBS. Where appropriate, cells are resuspended in a secondary antibody, anti-mouse Alexa-488 (Molecular Probes) diluted 1:1000 in 1% BSA/PBS, incubated at 4° C. for 30 minutes, and then washed twice in 1×PBS. Cells are resuspended in 1% BSA/1×PBS and surface expression is analyzed using a Beckman Coulter FC500.

[2] = system: BG01 cells; test: RT-PCR analysis of differentiation markers in inhibitor treated BG01 cells; format: cell-based, human
Description: as §1
Total RNA is isolated using TRIzol Reagent (GibcoBRL). RNA is run on a 1% agarose gel containing ethidium bromide and visualized using the AlphaImager™ 2200 Documentation and Analysis System to ensure RNA integrity. 10 μg of RNA is treated with DNase (Ambion), which is removed with DNase Inactivation Reagent (Ambion). cDNA is prepared with 500 ng of total RNA using the Superscript II Reverse transcriptase Kit (Invitrogen) using oligo(dT) primers. PCR reactions are carried out on 1 μl of cDNA. PCR products are run on a 2% agarose gel containing ethidium bromide and visualized using the Alphaamager™ 2200 Documentation and Analysis System. PCR primer sets used were GATA4, Mix1, Msx1, AFP, HNF4alpha, eHAND, Nanog, AFP and GAPDH.

[3] = system: BG01 cells; test: Morphology of BG01 hES cells cultured with PI3-kinase pathway inhibitors (standard microscopy); format: cell-based, human
Description: BG01 cells are passaged from feeders using the collagenase/trypsin method and are plated on matrigel coated dishes at 1×10^5 cells/35 mm dish in conditioned medium (CM; MEF conditioned medium plus 8 ng/ml bFGF). After approximately 24 hours, the media is replaced with fresh CM, CM with inhibitor (resuspended in EtOH), CM with EtOH, or with Spontaneous Differentiation medium (hES medium minus bFGF).
In alternative methods, the BG01 cells may be plated at different concentrations prior to contact with CM, CM with inhibitor and CM with EtOH Cells may be plated at the following concentrations: approximately 5×10^4 cells/35 mm dish, approximately 1×10^5 cells/35 mm dish, approximately 2×10^5 cells/35 mm dish, approximately 4×10^5 cells/35 mm dish and, approximately 6×10^5 cells/35 mm dish.
The inhibitor LY 294002 (Biomol) may be preferably used at the concentration range approximately 20-163 μM and the inhibitor Rapamycin (Calbiochem) is used at the concentration range approximately 1.5-30 nM. LY 294002 inhibits the PI3-kinase pathway by binding to the ATP docking site of p110. Rapamycin inhibits a subset of the PI3-kinase pathway by inhibiting mTOR (mammalian target of rapamycin).
Cells are grown in these conditions for approximately 72 hours with a medium change every 24 hours. Cells are harvested using the collagenase/trypsin method for flow cytometry and RT-PCR analysis and are scraped for biochemical analysis.
In undifferentiated cultures, individual cells are not easily discernable, being relatively small, irregular and without clearly apparent intercellular junctions at higher density. […] Individual cells are also more readily discernable at higher densities since discrete intercellular adhering junctions are evident between neighboring cells.

[4] = system: PI3-kinase signaling pathway; test: Western blot analysis of PI3-kinase signaling pathway activity (phosphorylated PKB/Akt, S6 kinase, S6 protein); format: cell-based, human; details: BG01 cells maintained in the presence of inhibitor
Description: Activity of the PI3-kinase signaling pathway may be assessed by Western blot analysis. Briefly, detergent extracts are prepared from untreated and treated cell cultures, separated by SDS-PAGE and blotted to nitrocellulose. Expression of active forms of the PI3-kinase intracellular targets PKB/Akt, S6 kinase and S6 protein are then determined by probing the nitrocellulose with appropriate antibodies to phosphorylated forms of each of these proteins. Generally, 30 μg of total protein are evaluated for each sample, primary incubations were carried out at a 1:1000 dilution of antibody, and binding in each case is detected by standard ECL based methodology.

[5] = system: human definitive endoderm cells (DE); test: Pancreatic endoderm formation from definitive endoderm with retinoic acid in FCS base media (Pdx1, Isl1 markers); format: cell-based
Description: (§2) BG01 hESCs were treated with LY 294002 (50 μM) for four days then switched to media containing DMEM/F12, 10% FCS, 50 ng/ml Fgf10 and 2 μM retinoic acid for up to four days. Untreated-untreated hESCs. Transcript levels were analyzed by QRT-PCR in triplicate and shown as the fold-increase over untreated samples (hESCs) after normalization to GAPDH reference transcript. Fold-induction of Pdx1 transcript levels are indicated.
as §2, with “consisting of” for “containing”, “Untreated: untreated” for “Untreated-untreated”, “transcript.” for “transcript. Fold-induction of Pdx1 transcript levels are indicated.”
The present invention relates to pancreatic endoderm cells (PE) which are obtained from definitive endoderm cells by exposing the definitive endoderm cells to an effective concentration of retinoic acid (at least about 0.05-0.1 μg/ml, preferably about 0.1-25 μg/ml, more preferably about 0.1-2.0 μg/ml) in base media comprising an effective amount of fetal calf serum (FCS— preferably about 10% of the base media plus serum) for a period of at least about 2 days, preferably at least about 4 days, and more preferably about 4 days, followed by exposing the cells obtained from the first step to FCS (preferably, about 10%) in base media for at least one day, preferably at least about 2 days in the absence of retinoic acid. This method preferably results in at least about 35-50% and preferably at least about 70-80+% of the cells in the treated sample expressing the pancreatic endoderm markers, Pdx1 and Isl1.
Definitive endoderm cells (from treatment above) are washed 2× with PBS. 2-3 ml Trypsin/EDTA solution is added and cells are triturated and collected in a 15 ml conical tube. DMEM/F12 with 10% FBS is added to stop the trypsinization and the cells are centrifuged at 200×g for 5 minutes. […]

[6] = system: BG01 hESCs; test: AFP transcript induction (QRT-PCR) following treatment of definitive endoderm; format: cell-based, human; details: DE from LY 294002 (50 μM, four days), then DMEM/F12, 10% FCS up to six more days, presence or absence of Fgf10
Description: (§3) BG01 hESCs were differentiated into definitive endoderm for four days following the addition of LY 294002 (50 μM). Media was changed to DMEM/F12, 10% FCS and cells grown for up to six more days. Untreated: untreated hESCs. AFP transcript levels were analyzed by QRT-PCR in triplicate and shown as the fold-increase over untreated samples (hESCs) after normalization to GAPDH reference transcript.
as §3, with “The first example relates to the generation of cells expressing the embryonic liver marker alphafetoprotein (AFP) following treatment of definitive endoderm. BG01” for “BG01”

O=c1cc(N2CCOCC2)oc2c(-c3ccccc3)cccc12 [LY 294002, 2-(4-Morpholinyl)-8-phenyl-4H-1-benzopyran-4-one]
cell surface CD markers expressed by undifferentiated hES cells (CD9, 27, 30, 46, 58 and 81) ([1]; after LY treatment): loss of a subset of cell surface CD markers
expression of CD9 ([1]; compared with spontaneous differentiation in adherent culture or embryoid bodies): may decrease more rapidly
markers indicative of early differentiation [2]: may be detected
cell spreading and morphology after treatment ([3]; BG01 cells after treatment, compared with undifferentiated cultures): marked spreading and adopted obvious epitheloid cuboidal morphologies
changes in morphology at high plating density ([3]; cells plated at approximately 4×10^5 cells/35 mm dish or higher): do not demonstrate the same morphological changes
changes in morphology at low plating density ([3]; cells plated lower than approximately 2×10^5 cells/35 mm dish): display changes in morphology
morphological change of BG01 cells ([3]; cultured in the presence of inhibitor, matrigel, conditioned medium, approximately 72 hours): undergo morphological change
activity of Akt [4]: inhibited
activity of S6 [4]: inhibited
activity of S6 kinase [4]: inhibited

CC1=C(/C=C/C(C)=C/C=C/C(C)=C/C(=O)O)C(C)(C)CCC1 [retinoic acid, all-trans retinoic acid]
homogeneity of differentiated cells ([5]; definitive endoderm cells cultured with retinoic acid in basal cell media): greater homogeneity than spontaneously differentiated cells
Isl1 expression ([5]; following treatment): marked increase
population of cells pure for the PE markers Pdx1 and Isl1 ([5]; from definitive endoderm cells): 70-80%

B1: Fgf10: fibroblast growth factor 10 (protein, UniProt O15520 38-208, looked up)
Fibroblast growth factor 10: QALGQDMVSPEATNSSSSSFSSPSSAGRHVRSYNHLQGDVRWRKLFSFTKYFLKIEKNGKVSGTKKENCPYSILEITSVEIGVVAVKAINSNYYLAMNKKGKLYGSKEFNNDCKLKERIEENGYNTYASFNWQHNGRQMYVALNGKGAPRRGQKTRRKNTSAHFLPMVVHS
AFP induction [6]: optimal AFP induction
